Assay results from paper PMC2033360, “Effects of a new antioestrogen, idoxifene, on cisplatin- and doxorubicin-sensitive and -resistant human ovarian carcinoma cell lines” (British Journal of Cancer, 1994).
Read-outs that look alike come from different tables or passages of the source.

Legend:
[1] = tested on: CH1cisR6 cells; assay: DNA interstrand cross-link repair by alkaline elution, CH1cisR6; assay type: cell-based, human
Text: (§1) Sary Pyroidno-4-iodotamoxifen (idoxifene) is a new non-steroidal antioestrogen currently undergoig phase I clnical evaluation. […] One agent that has featured in studies of both doxorubicin and cilatin resist- ance has been the extensively used antioestrogen tamoxifen. […] Tlhe purposes of this study were 3-fold. Initially, using a series of tamoxifen analogues of known inhibitory constants for calmodulin, the effect of increasing calmodulin inhibition on cytotoxicity against four human ovarian carcnoma cell lines was determined. […] Materials and mehod Drugs and chemicals The structures of tamoxifen and the various analogues of tamoxifen used are illustrated in Figure 1. […] Calmidazolium (R24571), Correspondence: L.R. Kelland, Drug Development Section, The Institute of Cancer Research, Block E, 15 Cotswold Road, Sutton, Surrey SM2 5NG, UK. […] Cytotoxicity data were then fitted to regression lines, and the concentration of each drug which produced a given level of cytotoxicity (fractional effect, Fa) alone or in combination was determined. Combination index (CI) for a given Fa was calculated as: CI = d' + td D-1 + D2 where DI and D2 are the doses of drugs 1 and 2, which by themselves produce a given Fa (i.e. IC5o); d' and d2 are the doses which produce the same Fa in combination. […]

[2] = tested on: CH1 cells; assay: DNA interstrand cross-link repair by alkaline elution, CH1; assay type: cell-based, human
Text: as §1

[3] = tested on: 41McisR6 cells; assay: SRB cytotoxicity assay, 41McisR6; assay type: cell-based, human; conditions: acquired cisplatin-resistant line versus parent
[4] = tested on: CH1cisR6 cells; conditions: acquired cisplatin-resistant line versus parent
[5] = tested on: CH1 cells; assay: SRB cytotoxicity assay, CH1; conditions: Homo sapiens, CH1, read-out: 96 h IC50, doxorubicin cytotoxicity, CH1
[6] = tested on: CH1doxR cells; assay: SRB cytotoxicity assay, CH1doxR; conditions: for Rf, resistance factor (IC50 resistant line/IC50 parent line), CH1doxR/CH1: doxorubicin resistance
Text: (§2) Sary Pyroidno-4-iodotamoxifen (idoxifene) is a new non-steroidal antioestrogen currently undergoig phase I clnical evaluation. […] One agent that has featured in studies of both doxorubicin and cilatin resist- ance has been the extensively used antioestrogen tamoxifen. […] Tlhe purposes of this study were 3-fold. Initially, using a series of tamoxifen analogues of known inhibitory constants for calmodulin, the effect of increasing calmodulin inhibition on cytotoxicity against four human ovarian carcnoma cell lines was determined. […] Materials and mehod Drugs and chemicals The structures of tamoxifen and the various analogues of tamoxifen used are illustrated in Figure 1. […] Calmidazolium (R24571), Correspondence: L.R. Kelland, Drug Development Section, The Institute of Cancer Research, Block E, 15 Cotswold Road, Sutton, Surrey SM2 5NG, UK. […] Briefly, the analysis compares the effects of drug combinations to the effects of individual drugs across the entire dose-effect range. Cytotoxicity data were then fitted to regression lines, and the concentration of each drug which produced a given level of cytotoxicity (fractional effect, Fa) alone or in combination was determined. Combination index (CI) for a given Fa was calculated as: CI = d' + td D-1 + D2 where DI and D2 are the doses of drugs 1 and 2, which by themselves produce a given Fa (i.e. IC5o); d' and d2 are the doses which produce the same Fa in combination. CI= I indicates zero interaction (additive cytotoxicity), CI <I indicates synergy and CI> 1 indicates antagonism (Chou computer program, Biosoft). […] All cell lines were grown as monolayers in Dulbecco's modified Eagle medium (DMEM) supplemented with 10% heat-iactivated fetal calf serum (Imperial Laboratores, Andover, UK), 50 gml-' gentamic 2.5 jg ml-' ampho- tericin B, 2 mM L-glutmie 10 jag ml- insulin and 0.5 jgmml' hydrocorisone in a 10% carbon dioxide, 90% air atmosphere. […] Assssment of cytotoxicity Tamoxifen and the analogues of tamoxifen were dissolved immediately before use in absolute ethanol at 20 mM. […]

[7] = tested on: 41M cells; assay: SRB cytotoxicity assay, 41M; conditions: Homo sapiens, read-out: 96 h IC50, doxorubicin cytotoxicity, 41M
Text: as §1

[8] = tested on: 41MdoxR cells; assay: SRB cytotoxicity assay, 41MdoxR; conditions: for Rf, resistance factor (IC50 resistant line/IC50 parent line), 41MdoxR/41M: doxorubicin resistance
Text: as §2

[9] = target: T1, calmodulin-dependent cyclic AMP phosphodiesterase (Homo sapiens, UniProt P0DP23); set-up: method as in Rowlands et al., 1990; conditions: values taken from previous determinations; ref Rowlands et al., 1990; read-out: calmodulin IC50 (inhibition of calmodulin-dependent cyclic AMP phosphodiesterase); cited from earlier work
[10] = tested on: human ovarian carcinoma cell lines; assay: Highest non-toxic concentration of the resistance modifiers, preliminary experiments; assay type: cell-based; conditions: <10% cell kill in any one cell line; continuous drug exposure
Text: as §1

[11] = tested on: 41McisR6 cells; assay: Intracellular platinum accumulation (flameless atomic absorption), 41McisR6; assay type: cell-based, human; conditions: 2 h exposure to cisplatin alone or with 2 microM idoxifene
Text: as §1

[12] = tested on: four human ovarian carcinoma cell lines; assay: cells; conditions: read-out: mean IC50 across four human ovarian carcinoma cell lines (cytotoxicity)
Text: as §1

[13] = tested on: CH1cisR6 cells; assay: Intracellular platinum accumulation (flameless atomic absorption), CH1cisR6; assay type: cell-based, human; conditions: 2 h exposure to cisplatin alone or with 2 microM idoxifene
Text: as §1

[14] = target: T1, calmodulin-dependent cyclic AMP phosphodiesterase; assay: Inhibition of calmodulin-dependent cyclic AMP phosphodiesterase; assay type: biochemical; conditions: unpublished data of the authors
Text: as §1

[15] = after 2 h exposure to cisplatin 25 microM, removed at 2 h versus 5 h (so in the source)
[16] = after 2 h cisplatin 25 microM, removal in presence of 2 microM idoxifene

For N.N.[Cl][Pt][Cl] [cisplatin, cis-diamminedichloroplatinum (II)], the “removal of cross-links, CH1cisR6” value [1, 15] was 90% and the “removal of cross-links, CH1” value [2, 15] was 15%.

In the case of CC/C(=C(/c1ccc(I)cc1)c1ccc(OCCN(C)C)cc1)c1ccccc1 [4-iodotamoxifen], the “Rf, resistance factor (IC50 resistant line/IC50 parent line), 41McisR6/41M” value (“Rf, resistance factor … 41McisR6/41M” below) [3] is reported as < 1 and the “Rf, resistance factor (IC50 resistant line/IC50 parent line), CH1cisR6/CH1” value (from here on “Rf, resistance factor … CH1cisR6/CH1”) [4] is reported as < 1.

For COc1cccc2c1C(=O)c1c(O)c3c(c(O)c1C2=O)C[C@@](O)(C(=O)CO)C[C@@H]3O[C@H]1C[C@H](N)[C@H](O)[C@H](C)O1 [doxorubicin], the IC50 [5] was 5.3 nM, the IC50 ([6]; Homo sapiens, read-out: 96 h IC50, doxorubicin cytotoxicity, CH1doxR) was 460 nM and the “Rf, resistance factor (IC50 resistant line/IC50 parent line), CH1doxR/CH1” value [6] was ~90. For the same compound, the “Rf, resistance factor (IC50 resistant line/IC50 parent line), CH1doxR/CH1” value ([6]; listed as Doxorubicin) was 87, the IC50 [7] was 39 nM and the IC50 ([8]; Homo sapiens, read-out: 96 h IC50, doxorubicin cytotoxicity, 41MdoxR) was 280 nM. For the same compound, the “Rf, resistance factor (IC50 resistant line/IC50 parent line), 41MdoxR/41M” value [8] was “approximately 7” and the “Rf, resistance factor (IC50 resistant line/IC50 parent line), 41MdoxR/41M” value ([8]; listed as Doxorubicin) was 7.2.

For CC/C(=C(\c1ccc(I)cc1)c1ccc(OCCN2CCCC2)cc1)c1ccccc1 [idoxifene, Pyrrolidino-4-iodotamoxifen], the IC50 [9] is given as 1400 nM, the highest non-toxic concentration [10] is given as 2 µM and the “Rf, resistance factor … 41McisR6/41M” value [3] is given as < 1. The “effect on platinum accumulation, 41McisR6” value [11] was “no significant difference”, the “Rf, resistance factor … CH1cisR6/CH1” value [4] was < 1 and the “effect on rate of DNA interstrand cross-link (ISC) removal, CH1cisR6” value [1, 16] was “did not markedly affect”. For the same compound, the “effect on rate of DNA interstrand cross-link (ISC) removal, CH1” value [2, 16] was “did not markedly affect”, the IC50 [12] was 4500 nM and the “effect on platinum uptake, CH1cisR6” value [13] was “no difference in uptake”.

In the case of CC/C(=C(/c1ccc(OCCN(C)C)cc1)c1cccc(O)c1)c1ccccc1 [3-hydroxytamoxifen], the “Rf, resistance factor … 41McisR6/41M” value [3] is reported as < 1, the “Rf, resistance factor … CH1cisR6/CH1” value [4] is reported as < 1 and the IC50 [14] is reported as 13000 nM.

With Clc1ccc(C(c2ccc(Cl)cc2)n2cc[n+](CC(OCc3ccc(Cl)cc3Cl)c3ccc(Cl)cc3Cl)c2)cc1 (stereo not drawn) [calmidazolium] the “Rf, resistance factor … 41McisR6/41M” value [3] was < 1 and the “Rf, resistance factor … CH1cisR6/CH1” value [4] was < 1.

For CC/C(=C(\c1ccccc1)c1ccc(OCCN(C)C)cc1)c1ccccc1 [tamoxifen], the highest non-toxic concentration [10] was 4 µM, the “Rf, resistance factor … 41McisR6/41M” value [3] was < 1 and the “Rf, resistance factor … CH1cisR6/CH1” value [4] was < 1. It also gave an IC50 [12] of 6300 nM.
